Laboratory results from patent publication US4937371A, “Dihydroxynaphthalene derivatives” (Hoffmann-La Roche Inc., priority 1989, dated 1990).

Assays:
[1] = test system: Myeloperoxidase accumulation (rat acetic acid colitis model); test: Acetic acid-induced colitis in rats, in vivo; parameters: species or system rat (Sprague-Dawley)
Text: Acetic Acid-Induced Colitis in Rats, In Vivo
The rat acetic acid-induced colitis bioassay has been described by J. E. Krawisz, et al. in Amer. J. Proc. Gastro. Col. Rec. Surg. 31: 11-18 (1980), and by P. Sharon and W. F. Stenson in Gastroenterolgy 88: 55-63 (1985) and 86:453-460 (1984). Acetic acid-induced colitis is characterized by the movement of inflammatory cells into the colon, with the number of such cells in the mucosa being measured by the activity of myeloperoxidase, a marker enzyme for these cells. Positive desirable activity is indicated by a reduction in the high levels of myeloperoxidase caused by acetic acid. Male rats (Sprague-Dawley), weighing 150 to 300 g, were pretreated twice daily for two days with either the vehicle (water, or dimethylsulfoxide) or the test inhibitor compound suspended in water or dissolved in dimethylsulfoxide and orally administered. On the third day, the animals were dosed the same as on the previous two days, anesthetized with metofane, and 2 ml of 2.5% acetic acid was injected by syringe into the colonic lumen, followed immediately by 3 ml of air and a rinse consisting of 3 ml of phosphate-buffered saline (the acetic acid is Present in the lumen for a sufficient period to cause inflammation without producing severe necrosis or irreversible damage). The animals were administered a second dose of the test compound in the same amount about 16 hours later. Twenty four hours after the acetic acid treatment, the animals were sacrificed, the colonic mucosa was surgically removed and homogenized in an aqueous buffer at pH 6 with a Tissumizer or similar device, and myeloperoxidase was measured in the homogenate using o-phenylenediamine as a chromagen, as described by A. Voller, D. E. Bidwell and A. Bartlett in The Enzyme Linked Immunosorbent Assay (ELISA), Zoological Soc., London, 1979, pages 29-30. Control animals were pretreated with the vehicle and saline in place of acetic acid.

[2] = test system: LTB4 formation (Δ^5 -lipoxygenase (5-LO) pathway); test: Rat peritoneal macrophage assay, in vitro: LTB4 formation; format: cell-based; details: 0.5 h, rat peritoneal macrophages, 30 min incubation, A 23187-stimulated
Text: (§1) RAT PERITONEAL MACROPHAGE ASSAY, IN VITRO
(§2) The rat peritoneal macrophage assay measures the ability of a test compound to influence the release of arachidonic acid (AA) from phospholipid stores in the plasma membrane and the subsequent metabolism of AA by the Δ^5 -lipoxygenase (5-LO) and cyclooxygenase (CO) pathways to the final products excreted by the cells: leukotriene B4 (LTB4, from the 5-LO pathway) and prostaglandin E2 (PGE2, from the CO Pathway).
(§3) Macrophages were obtained from rats by peritoneal lavage with phosphate buffered saline minus Ca^+2 and Mg^+2 (PBS). Cells were washed 3 times with PBS and resuspended in Delbecco's Modified Eagle medium (Gibco Laboratories) containing L-glutamine and D-glucose and supplemented with 10% fetal calf serum. Cells were counted on a Coulter ZBA cell counter and then resuspended to a concentration of 4×10^6 cells/mL. […] The extracellular fluid was removed and ^14 C radioactivity released into this fluid from AA metabolism was measured by liquid scintillation spectroscopy. The amounts of LTB4 and PGE2 were measured in the extracellular fluid by radioimmunoassay with specific antisera. […]
(§4) This assay measures inhibition by the test compounds of the 5-LO and the CO pathways of AA metabolism and this inhibition is expressed as an IC50 for LTB4 and PGE2 formation, respectively.

[3] = biological target: T1, Δ^5 -lipoxygenase from rat basophilic leukemia (RBL-1) cells (Rattus norvegicus, UniProt P12527); test: In vitro test for Δ^5-lipoxygenase inhibitors (RBL-1 cell supernatant); format: biochemical; details: Δ^5-lipoxygenase from RBL-1 cells; 10 min preincubation at 30° C.; 6.7 μM arachidonic acid; 37° C.; pH 7.2
T1 construct: The Δ^5 -lipoxygenase was derived from the supernatant fraction of lysed RBL-1 cells; endogenous in cells; host or cells: RBL-1 (rat basophilic leukemia) cells, 49,000 g supernatant of the homogenate
T1 sequence (P12527 1-673): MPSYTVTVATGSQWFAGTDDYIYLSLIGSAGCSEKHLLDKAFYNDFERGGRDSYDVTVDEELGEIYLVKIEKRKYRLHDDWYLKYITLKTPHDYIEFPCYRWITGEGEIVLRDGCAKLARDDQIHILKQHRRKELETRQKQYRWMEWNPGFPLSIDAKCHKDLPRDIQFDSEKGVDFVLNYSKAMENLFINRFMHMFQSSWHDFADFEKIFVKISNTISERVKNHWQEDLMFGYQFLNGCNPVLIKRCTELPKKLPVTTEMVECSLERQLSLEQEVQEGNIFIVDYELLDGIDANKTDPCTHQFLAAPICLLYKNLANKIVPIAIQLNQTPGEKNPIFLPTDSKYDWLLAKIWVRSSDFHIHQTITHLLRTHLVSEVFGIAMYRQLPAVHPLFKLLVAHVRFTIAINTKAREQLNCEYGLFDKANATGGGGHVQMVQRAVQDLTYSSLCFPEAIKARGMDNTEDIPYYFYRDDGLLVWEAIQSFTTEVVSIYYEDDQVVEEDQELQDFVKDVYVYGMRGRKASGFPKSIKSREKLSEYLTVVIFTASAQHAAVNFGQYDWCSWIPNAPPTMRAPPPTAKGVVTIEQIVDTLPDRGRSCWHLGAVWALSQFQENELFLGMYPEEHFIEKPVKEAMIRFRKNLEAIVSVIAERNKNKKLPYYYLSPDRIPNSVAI
Protocol: IN VITRO TEST FOR Δ^5 -LIPOXYGENASE INHIBITORS
Compounds of formula I of the invention were tested for their effect on Δ^5 -lipoxygenase from rat basophilic leukemia (RBL-1) cells. The activity of this enzyme was determined by measuring the catalytic conversion of [1-^14 C]arachidonic acid to [1-^14 C-5-hydroperoxy- 6,8,11,14-eicosatetraenoic acid ([1-^14 C]-5-HPETE) which leads to the formation of the 5-hydroxy derivative ([1-^14 C]-5-HETE). The Δ^5 -lipoxygenase was derived from the supernatant fraction of lysed RBL-1 cells using a modification of the method previously described by Jakschik and Lee [Nature 287:51 (1980)]. Briefly, RBL-1 cells were lysed by homogenization in ice-cold buffer (50 mM Tris-HCl buffer, pH 7.2, containing 1 mM EDTA and 14 μM indomethacin). The homogenate was centrifuged at 4° C. and 49,000 g for 20 minutes and the resulting supernatant fraction was used as the source of Δ^5 -lipoxygenase. […] The ethereal extract containing [1-^14 C]-5-HETE and unreacted substrate analyzed by silica gel TLC using isooctane-methylethyl ketone acetic acid (100:9:1) as the developing solvent. […] The effect of inhibitors on Δ^5 -lipoxygenase activity was determined by preincubating the enzyme for 10 minutes at 30° C. in the presence or absence of various concentrations of the drug prior to addition of substrate. […]

[4] = test system: PGE2 formation (cyclooxygenase (CO) pathway); test: Rat peritoneal macrophage assay, in vitro: PGE2 formation; format: cell-based; details: 0.5 h, rat peritoneal macrophages, 30 min incubation, A 23187-stimulated
Text: as §1, §2, §3, §4

Structure (SMILES) | % Inhibition of Myeloperoxidase Accumulation ([1]; 10 mg/kg p.o.) [%] | % Inhibition of Myeloperoxidase Accumulation ([1]; 1 mg/kg p.o.) [%] | further results
CCCc1c(OCCc2ccc3cc(O)c(O)cc3c2)ccc(C(=O)O)c1O [4-[2-(6,7-Dihydroxy-2-naphthalenyl)ethoxy]-2-hydroxy-3-propylbenzoic acid] | 60 ± 13 |  | 
CCCc1c(OCCCc2ccc3cc(O)c(O)cc3c2)ccc(C(=O)O)c1O [4-[3-(6,7-Dihydroxy-2-naphthalenyl)propoxy]-2-hydroxy-3-propylbenzoic acid] |  | 21 ± 4 | 
CCCc1c(OCCCCc2ccc3c(Cl)c(O)c(O)c(Cl)c3c2)ccc(C(=O)O)c1O [4-[4-(5,8-Dichloro-6,7-dihydroxy-2-naphthalenyl)butoxy]-2-hydroxy-3-propylbenzoic acid] | 71 ± 7 |  | 
CCCc1c(OCCCCc2ccc3cc(O)c(O)cc3c2)ccc(C(=O)O)c1O [4-[4-(6,7-Dihydroxy-2-naphthalenyl)butoxy]-2-hydroxy-3-propylbenzoic acid] |  |  | % Inhibition of Myeloperoxidase Accumulation ([1]; 3 mg/kg p.o.): 82 ± 8%; IC50 [2]: 3000 nM; IC50 [3]: 4.7 nM; IC50 [4]: 2000 nM
CCCc1c(OCCCCCc2ccc3cc(O)c(O)cc3c2)ccc(C(=O)O)c1O [4-[5-(6,7-Dihydroxy-2-naphthalenyl)pentyloxy]-2-hydroxy-3-propylbenzoic acid] | 56 ± 11 |  | 
O=C(O)c1ccc(OCCCCCCc2ccc3cc(O)c(O)cc3c2)cc1O [4-[6-(6,7-Dihydroxy-2-naphthalenyl)hexyloxy]-2-hydroxybenzoic acid] |  | 65 ± 9 | 
O=C(O)c1ccc(OCCCCCCc2ccc3cc(O)c(O)cc3c2)cc1 [4-[6-(6,7-Dihydroxy-2-naphthalenyl)hexyloxy]benzoic acid] | 68 ± 13 |  | 
CCCc1c(OCCCCCCc2ccc3cc(O)c(O)cc3c2)ccc(C(=O)O)c1O [4-[6-(6,7-dihydroxy-2-naphthalenyl)hexyloxy]-2-hydroxy-3-propylbenzoic acid] |  | 46 ± 12 | 
CCCc1c(OCCCCC(=O)c2ccc3cc(O)c(O)cc3c2)ccc(C(=O)O)c1O [4-[[5-(6,7-Dihydroxy-2-naphthalenyl)-5-oxopentyl]oxy]-2-hydroxy-3-propylbenzoic acid] |  |  | % Inhibition of Myeloperoxidase Accumulation ([1]; 30 mg/kg p.o.): 80 ± 18%
CCCc1c(OCCCCCC(=O)c2ccc3cc(O)c(O)cc3c2)ccc(C(=O)O)c1O [4-[[6-(6,7-dihydroxy-2-naphthalenyl)-6-oxohexyl]oxy]-2-hydroxy-3-propylbenzoic acid] |  |  | IC50 [2]: 3000 nM; IC50 [4]: 2000 nM
